PMC8533149 (Biomolecules, 2021)

Tested on: HIV-1 LTR-III G-quadruplex (FAM/TAMRA-labeled LTR-III)
Test: FRET melting assay, LTR-III G4
Type: binding
Conditions: Table S1 primary screening, ligand:ODN 50:1, singlicate
Description: To evaluate stabilizing properties of the ligands in a complex with oligodeoxyribonucleotides (ODNs) melting with fluorescence registration was used. ODN (0.5 μM) (Table 1), labeled with 6-carboxyfluorescein (FAM) and 6-carboxytetramethylrhodamine (TAMRA) at the 5′- and 3′-end, respectively, were folded in lithium cacodylate buffer (10 mM, pH 7.4) with 100 mM KCl by heating at 95 °C for 5 min and gradually cooling to r.t. GFP chromophore analogs (5 mM solution in DMSO) were diluted with the same buffer to the final concentration of 25 μM and mixed with an equal volume of 0.5 μM ODN solution resulting in a molar ratio of 50:1 (total volume was 50 μL). For the titration experiments molar ratios of 20:1 and 2:1 were used. Samples were analyzed using DTprime qPCR system (DNA-Technology LLC, Moscow, Russia). Fluorescence was registered by detection of FAM emission at 520 nm upon excitation at 495 nm in the temperature range of 30–95 °C with 1 °C/min gradient. Tm was determined using the instrument software and ΔTm was calculated relative to ODN Tm in a buffer solution containing 0.25% (v/v) DMSO. The primary and secondary screening were carried out in singlicate and triplicate, respectively.

| Structure (SMILES) | LTR-III ΔTm [°C] |
| --- | --- |
| CCN(CC)c1ccc(C=C2N=C(C(C)=O)N(C)C2=O)cc1 [M 1706] | -0.4 |
| CC1=NC(=Cc2ccc(O)c(F)c2)C(=O)N1CC(N)=O [SA 99] | 0.1 |
| CC1=NC(=Cc2cc3c4c(c2)CCCN4CCC3)C(=O)N1C [X 4] | 1 |
| CC(C)OC(=O)c1noc(=O)c(O)c1-c1ccccc1 [SA 300A] | 0.1 |
| O=C1NC(=S)SC1=Cc1cc(Cl)c(O)c(Cl)c1 [SAI 127] | -0.2 |
| CCN(CC)c1ccc(C=C2N=C(C)NC2=O)cc1 [M 1045] | 0.1 |
| CCN(CC)c1ccc(C=C2N=C(C)N(C)C2=O)cc1 [GC 04] | 0 |
| CCN(CC)c1ccc(C=C2N=C(C)N(CCCCCl)C2=O)cc1 [N 189] | 0.2 |
| COc1cc(C=C2N=C(C(F)(F)F)N(C)C2=O)c(OC)cc1O [M 2738d] | 1.4 |
| O=C(O)c1ccc(-c2ccccc2)cc1 [X 26] | -0.1 |
| CC1=NC(=Cc2ccc3cc(N(C)C)ccc3c2)C(=O)N1C [X 001] | -0.5 |
| CC1=NC(=Cc2ccncc2)C(=O)N1CCNC(=O)OC(C)(C)C [M 2250.2] | -0.1 |
| C#CCN1C(=O)C(=Cc2ccc(O)cc2)N=C1C [X 12] | 0.2 |
| CCN(CC)c1ccc(C=C2N=C3C=CC=CN3C2=O)cc1 [N 641] | -0.5 |
| CC(C)(C)[Si](Oc1ccc(C=C2NC(=S)NC2=O)cc1)(c1ccccc1)c1ccccc1 [VZ 2] | -0.2 |
| CCN(CC)c1ccc(C=C2N=C(C=Cc3ccc(OC)cc3)N(C)C2=O)c(B(F)F)c1 [M 1971a] | -0.3 |
| COc1ccc(C=CC2=NC(=Cc3ccnc4ccccc34)C(=O)N2C)cc1 [AL 125] | 1.7 |
| CC(=O)C1=NC(=Cc2c[nH]c3cccc(C)c23)C(=O)N1C [M 1981] | 1.7 |
| CON1C(=O)C=NC(=Cc2ccc(O)cc2)C1=O [M 577] | 0.1 |
| O=C1NC(=S)SC1=Cc1cc(Br)c(O)c(Br)c1 [SAI 112] | 0.3 |
| CN1C(=O)C(=Cc2ccc(O)cc2)N=C1CCCCNC(=O)OC(C)(C)C [Boc-AV-GFP] | 0.2 |
| COc1ccc(-c2c(C(=O)OC(C)C)noc2C(=O)N2CCCCC2)cc1 [SA 375] | -0.4 |

| Structure (SMILES) | LTR-III ΔTm [°C] |
| --- | --- |
| COc1ccc(OC)c(C=C2N=C(C=Cc3cc(Br)c(O)c(Br)c3)N(C)C2=O)c1 [N 851A] | 1.4 |
| COc1ccc(CN(C(C)=O)C(C)C2=NC(=Cc3ccc(O)cc3)C(=O)N2C)cc1 (stereo not shown) [X 23] | 0.5 |
| CC(C)OC(=O)c1noc(C(=O)NCc2ccccc2)c1-c1cccc(C(F)(F)F)c1 [SA 344B] | -0.7 |
| CC(=O)Oc1ccc(C=C2N=C(C)N(CCNC(=O)OC(C)(C)C)C2=O)cc1 [M 678] | -0.4 |
| CC1=NC(=Cc2ccccc2)C(=O)N1CC(N)=O [SA 152] | -0.3 |
| COc1cc(O)ccc1C=C1N=C(C(=Cc2ccncc2)c2ccccc2)N(C)C1=O [N 1142] | 0.1 |
| COc1cc(O)ccc1C=C1N=C(C=Cc2ccc(N(C)C)cc2)N(C)C1=O [MID 147] | 0.4 |
| COc1ccc(C=C2N=C3C(=O)NC(=O)CN3C2=O)cc1 [SA 130] | 0.4 |
| CN1C(=O)C(=Cc2ccc(O)cc2)N=C1CCCCCNC(=O)OC(C)(C)C [X 21] | -0.1 |
| CCOC(=O)CN1C(=O)C(=Cc2ccc(OC)cc2)N=C1C [SA 117] | -0.2 |
| COc1cc(O)ccc1C=C1N=C2C=CC=CN2C1=O [N 1123] | 0.3 |
| COc1cc(O)ccc1C=C1N=C(Cc2ccccc2)N(C)C1=O [N 1135] | 0 |
| CC1=NC(=Cc2ccc([N+](=O)[O-])c(O)c2)C(=O)N1C [SV 52.7] | -0.2 |
| COc1ccc(C=C2N=C(C)N(C)C2=O)cc1 [M 1814] | -0.3 |
| CCN(CC)c1ccc2c(C=CN(C)C)cc(=O)oc2c1 [N 582.1] | 0 |
| COC(=O)c1ccc(C(N)=C2N=C(C)N(C)C2=O)cc1 [ZS 199] | -0.4 |
| CC(C)OC(=O)c1noc(C(=O)NCc2ccccc2)c1-c1cccc2ccccc12 [SA 343B] | -0.9 |
| NC(=C1N=C2C=CC=CN2C1=O)c1ccccc1 [ZS 167] | -0.1 |
| CN1C(=O)C(=Cc2ccc(O)cc2O)N=C1C=Cc1cc(Br)c(O)c(Br)c1 [N 855] | 0.4 |
| COc1cc(O)cc(OC)c1C=C1N=C(C=Cc2c(F)c(F)nc(F)c2F)N(C)C1=O [N 971] | 0.1 |
| CC1=NC(=Cc2ccccc2F)C(=O)N1C [SV 50.9] | -0.2 |
| COc1ccc(O)c(C=C2N=C(C)N(C)C2=O)c1 [M 2360] | -0.3 |

| Structure (SMILES) | LTR-III ΔTm [°C] |
| --- | --- |
| COc1ccc(/C=C2N=C(/C=C/N3CCOCC3)N(C)C\2=O)cc1 [M 2371c] | -0.1 |
| CC1=NC(=Cc2ccc(N3CCCCC3)cc2)C(=O)N1C [N 665] | -0.3 |
| CCN(CC)c1ccc(C=C2N=C(C)N(CCCC(=O)O)C2=O)cc1 [M 820] | 0.1 |
| CSC1=NC(=Cc2ccc(O[Si](c3ccccc3)(c3ccccc3)C(C)(C)C)cc2)C(=O)N1C [SA 497] | -0.4 |
| CNC(=O)C(=Cc1ccc(Br)cc1)NC(=O)c1ccccc1 [GR 83] | -0.8 |
| COc1ccc(C=C2N=C3C(=O)NCCN3C2=O)cc1OC [JL 06.2] | 0.4 |
| CC1=NC(=Cc2cccc3ccccc23)C(=O)N1C [SV 51.12] | 0.4 |
| Oc1ccc2cc(Br)ccc2c1 [N 576.3] | 0 |
| CC(=O)Oc1ccc(C=C2N=C(C)N(C)C2=O)cc1 [M 2370] | 0 |
| CC1=NC(=Cc2cc3c4c(c2)CCCN4CCC3)C(=O)N1CCCC(=O)O [N 152] | 0.3 |
| COc1ccc(C=C2N=C(C)N(C3CCCCC3)C2=O)cc1 [ZS 129] | -0.2 |
| O=C1NC(=S)SC1=Cc1ccc(O)c(C(=O)O)c1 [SAI 120] | 0.6 |
| COc1ccc(C(N)=C2N=C(C)N(C)C2=O)cc1 [ZS 99] | -0.2 |
| COc1ccc(C=C2N=C(C)N(C)C2=O)c(OC)c1 [M 2379] | 0.1 |
| COc1ccc(C=C2N=C(SC)N(C)C2=O)cc1 [VZ 1] | 0.4 |
| O=C1CN2C(=O)C(=Cc3ccc(O)cc3)N=C2C(=O)N1 [SA 102] | 0.2 |
| CC1=NC(=Cc2ccc(O)cc2)C(=O)N1 [GA 01] | -0.4 |
| COc1ccc(C=C2N=C(C=C(O)c3cccs3)N(C)C2=O)cc1 [N 539.1] | 0 |
| CC(C)CCC1=NC(=Cc2ccc(O)cc2)C(=O)N1C [GA 18] | -0.1 |
| CC1=NC(=Cc2c[nH]c3ccccc23)C(=O)N1C [GC 07] | -0.4 |
| CC1=CC(C)(C)N(C)c2ccc(C=CC3=NC(=Cc4ccc5c(c4)C(C)=CC(C)(C)N5C)C(=O)N3CCCC(=O)O)cc21 [N 62] | 0.6 |
| CC(C)OC(=O)c1noc(=O)c(O)c1-c1ccc(O)cc1 [AL 23] | 0 |

| Structure (SMILES) | LTR-III ΔTm [°C] |
| --- | --- |
| CNC(=O)C(=Cc1ccncc1)N=P(c1ccccc1)(c1ccccc1)c1ccccc1 [N 833] | -0.6 |
| NC(=C1N=C2C=CC=CN2C1=O)c1ccc(Cl)cc1 [ZS 228] | 0.3 |
| CCN(CC)c1ccc(/C=C2\N=C(C)N(C)C2=O)c(O)c1 [M 1933] | -0.3 |
| CC(C)OC(=O)c1noc(C(=O)N2CCOCC2)c1-c1ccc(C(C)C)cc1 [SA 342A] | -0.3 |
| CNC(=O)c1onc(C(=O)OC(C)C)c1-c1ccccc1F [SA 331A] | -0.7 |
| CN1C(=O)C(=Cc2ccc(N(C)C)cc2)N=C1C=Cc1cc(Br)c(O)c(Br)c1 [M 2368c] | 0 |
| CC1=NC(=Cc2ccccc2O)C(=O)N1 [N 702.1] | 0 |
| CCC(=O)Oc1ccc(C=C2N=C(CC)OC2=O)cc1 [M 292] | -0.6 |
| CN1C(=O)C(=Cc2ccc(O)cc2)N=C1C=Cc1ccc(O)c([N+](=O)[O-])c1 [ccA 11] | 0.1 |
| COc1ccc2cc(CO)ccc2c1 [N 49] | -0.1 |
| CC1=NC(=Cc2ccc(O)c(O)c2)C(=O)N1C [M 1583.7] | -1.4 |
| COc1cc(O)ccc1C=C1N=C(C=Cc2c(F)c(F)nc(F)c2F)N(C)C1=O [N 967] | 0.8 |
| CC1=NC(=Cc2cc(Cl)c(O)c(Cl)c2)C(=O)N1C [N 892] | -1 |
| COc1ccc(C=C2N=CN(C)C2=O)cc1 [N 599.2] | -0.7 |
| CN1C(=O)C(=Cc2cc(Cl)c(O)c(Cl)c2)N=C1C=Cc1ccncc1 [N 901] | 0.4 |
| COc1cc(O)ccc1C=C1N=C(C=Cc2cc(Cl)nc(Cl)c2)N(C)C1=O [N 960b] | 0.7 |
| O=C1C(=C2N=C3C=CC=CN3C2=O)N=C2C=CC=CN12 [N 817.2] | -0.1 |
| O=C1NC(=S)SC1=Cc1ccc(O)cc1 [HBR] | -0.2 |
| CC1=NC(=Cc2cccc([N+](=O)[O-])c2)C(=O)N1C [M 1257] | -0.9 |
| CSC1=NC(=Cc2ccc(N(C)C)cc2)C(=O)N1 [AL 166.1] | 0.1 |
| CC(C)OC(=O)c1noc(C(=O)NC2CCCCC2)c1-c1ccccc1 [SA 325E] | -0.6 |
| CN1C(=O)C(=Cc2ccc(O)cc2)N=C1C=Cc1ccccc1 [M 996a] | 0.1 |
